From US20140163044A1, “Compound Chemical Medicine Acting on Respiratory Disease, Preparation Process and Use Thereof” (HUNAN JIUDIAN PHARMACEUTICAL CO., LTD., priority 2011, published 2014)

What was measured:
[1] = tested on: guinea pigs; assay: Antitussive effect in guinea pigs (induced cough 1 h or 4 h after oral administration); format: in vivo; settings: for Effect on latent period of cough and cough times (in words): all dose groups; for Cough times before administration (in 5 min) / Latent period of cough / cough count: oral; for Cough times before administration (in 5 min): baseline before administration
Excerpt: The pharmacodynamic test for the pharmaceutical composition of the present invention: • 1. Studies on the Antitussive Effect
Medicines used in the test:
Test medicine: self-made tablets of the pharmaceutical composition comprising levodropropizine and carbocisteine by the inventors
Positive control medicine: levodropropizine tablets and carbocisteine tablets
150 guinea pigs (half male and half female) with a body mass of 300±25 g are taken and evenly divided into 15 groups, with 10 in each group. The administration group for the tablet of the present invention is divided into high dose group, medium dose group and low dose group, and the tablets are orally administered respectively; the administration groups for the positive control medicine levodropropizine is also divided into high dose group, medium dose group and low dose group. Each dose group is divided into two groups, respectively the group inducing cough at the first hour or the fourth hour after administration.

[2] = tested on: outpatients or inpatients with cough; assay: Trials for observing the clinical effect of the tablet in patients with cough; format: in vivo; settings: 100 cases per group, oral, one tablet 3 times a day, 5-day course; for Efficacy: Ineffective: cough not improved or aggravated; for Efficacy: Improved: cough reduced 3 to 2 points or 2 to 1 points; for Efficacy: Effective: cough reduced to 1 point from 3 points; for Efficacy: Clinically controlled: symptoms disappeared completely
Protocol: Trials for observing the clinical effect of the tablet of the present invention was conducted in the People's Hospital of Yongshun County, Hunan Province.
300 outpatients or inpatients with cough caused by acute upper respiratory tract infection, acute tracheitis and bronchitis, community-acquired pneumonia, and acute exacerbation of chronic bronchitis were randomly divided into a treatment group […], 100 patients for each group. Medicines were administered following the double-blind double-dummy positive medicine parallel control method. The tablets of the present invention, the control medicine levodropropizine tablets or carbocisteine tablets were taken by each group, respectively. Each group orally takes the tablets 3 times a day, one tablet (including analog tablet) each time, for a 5-day course of treatment. Other antitussive or expectorant medicine was stopped during the administration. The patients' conventional indicators such as blood pressure, pulse rate, body temperature, respiration, etc.; symptoms of cough; chest x-ray; blood and urine routine tests; liver and kidney functions; adverse reaction records and electrocardiogram were recorded.
Criteria for evaluating the efficacy are as follows: clinically controlled: symptoms disappeared completely; effective: symptoms of cough reduced to 1 point from 3 points; improved: symptoms of cough reduced to 2 points from 3 points or reduced to 1 points from 2 points; ineffective: symptoms of cough were not improved or aggravated.

[3] = 60 mg/kg, four hours after administration
[4] = 60 mg/kg, one hour after administration
[5] = 30 mg/kg, four hours after administration
[6] = 30 mg/kg, one hour after administration
[7] = 120 mg/kg, four hours after administration
[8] = 120 mg/kg, one hour after administration

| SMILES | Effect on latent period of cough and cough times (in words) [1] | Cough times before administration (in 5 min) ([1]; 60 mg/kg group, 1 h group) | Cough times before administration (in 5 min) ([1]; 60 mg/kg group, 4 h group) | Latent period of cough [1, 3] [s] | cough count [1, 3] | Latent period of cough [1, 4] [s] | cough count [1, 4] | Effective rate [2] [%] | Efficacy: Ineffective [2] [cases] | Efficacy: Improved [2] [cases] | Efficacy: Effective [2] [cases] | Efficacy: Clinically controlled [2] [cases] | also measured |
| --- | --- | --- | --- | --- | --- | --- | --- | --- | --- | --- | --- | --- | --- |
| N[C@@H](CSCC(=O)O)C(=O)O [Carbocisteine tablet, carbocisteine] | no obviously effect on prolonging the latent period of cough and reducing the cough times | 25.24 ± 4.53 | 26.04 ± 4.37 | 32.56 ± 5.17 | 20 ± 4.24 | 31.28 ± 6.42 | 21.1 ± 3.98 | 86 | 14 | 40 | 18 | 28 | – |
| OC[C@@H](O)CN1CCN(c2ccccc2)CC1 [Levodropropizine tablet, levodropropizine] | effects of prolonging latent period of cough and reducing cough times | 25.41 ± 5.26 | 25.89 ± 4.06 | 40.27 ± 5.29 | 17.2 ± 3.45 | 42.38 ± 5.98 | 17.6 ± 3.97 | 92 | 8 | 17 | 15 | 60 | Cough times before administration (in 5 min) ([1]; 30 mg/kg group, 1 h group): 25.14 ± 4.37 in 5 min; Cough times before administration (in 5 min) ([1]; 30 mg/kg group, 4 h group): 25.74 ± 3.71 in 5 min; Latent period of cough [1, 5]: 36.34 ± 4.68 s; cough count [1, 5]: 19.4 ± 5.03; Latent period of cough [1, 6]: 38.16 ± 5.88 s; cough count [1, 6]: 19.1 ± 4.15; Cough times before administration (in 5 min) ([1]; 120 mg/kg group, 1 h group): 25.18 ± 5.31 in 5 min; Cough times before administration (in 5 min) ([1]; 120 mg/kg group, 4 h group): 26.27 ± 3.98 in 5 min; Latent period of cough [1, 7]: 42.18 ± 3.18 s; cough count [1, 7]: 15.1 ± 3.97; Latent period of cough [1, 8]: 49.57 ± 6.87 s; cough count [1, 8]: 14.2 ± 4.25 |
